Laboratory results reported in patent US9868726B2, “Pyridyl benzothiophenes as kinase inhibitors” (Allergan, Inc., priority 2014, dated 2018).

Experiments:
[1] = biological target: VEGFR2 (cytoplasmic domain KDR protein) (Homo sapiens (Human), UniProt P35968); experiment: VEGFR2 Kinase Assay (biochemical KDR kinase assay, ELISA); conditions: read-out: VEGFR2 Enzyme Assay (IC50 nM); 2.7 μM ATP
[2] = biological target: PDGFRβ (cytoplasmic domain PDGFR-b protein) (Homo sapiens (Human), UniProt P09619); experiment: PDGFRβ Kinase Assay (biochemical, ELISA); conditions: 36 μM ATP; read-out: PDGFRβ Enzyme Assay (IC50 nM)
[3] = biological target: VEGFR2 (Homo sapiens (Human), UniProt P35968); experiment: VEGFR2 Cellular Assay (FLIPR, VEGF induced intracellular calcium in HUVEC)
[4] = biological target: recombinant human GST-PKR (Homo sapiens (Human), UniProt P19525); experiment: PKR KinaseGlo Assay; assay type: biochemical; conditions: 6.6 uM ATP; read-out: PKR KINASEGLO Enzyme Assay IC50
Method: Commercially available recombinant human GST-PKR (SignalChem, Canada; 1.5 uM-2 uM stock) is diluted to 500 nM in assay buffer (20 mM Tris-HCl, pH 7.2, 10 mM KCl, 10 mM MgCl2, 10% glycerol). Preactivated PKR is dispensed to 384/96-well black plates at 3.125/12.5 uls/well using the liquid handler Janus. Appropriate dilutions of inhibitors are added to 384/96-well plate followed by 6.6 uM ATP (final) and incubated for 10 minutes at room temperature. The remaining ATP/well is determined by adding 6.25/25 uls/well Kinase-Glo assay mix (Promega) and luminescence is measured on EnVision luminescence plate reader (integration time, 0.2 sec; Perkin-Elmer, Massachusetts, USA). […] IC50 values are determined by plotting % activity versus inhibitor concentration. Curves are fitted using Activity base XLfit (IDBS, UK) using the formula— 4 Parameter Logistic Model fit=(A+((B−A)/(1+(10^((C−x)*D))))) inv=(C−(log(((B−A)/(y−A))−1)/D)) res=(y−fit)

[5] = biological target: PDGFRβ (Homo sapiens (Human), UniProt P09619); experiment: PDGFRβ Cellular Assay (FLIPR, PDGF-induced intracellular calcium in NHDF-Ad)
PDGFRβ, sequence (P09619 33-1106): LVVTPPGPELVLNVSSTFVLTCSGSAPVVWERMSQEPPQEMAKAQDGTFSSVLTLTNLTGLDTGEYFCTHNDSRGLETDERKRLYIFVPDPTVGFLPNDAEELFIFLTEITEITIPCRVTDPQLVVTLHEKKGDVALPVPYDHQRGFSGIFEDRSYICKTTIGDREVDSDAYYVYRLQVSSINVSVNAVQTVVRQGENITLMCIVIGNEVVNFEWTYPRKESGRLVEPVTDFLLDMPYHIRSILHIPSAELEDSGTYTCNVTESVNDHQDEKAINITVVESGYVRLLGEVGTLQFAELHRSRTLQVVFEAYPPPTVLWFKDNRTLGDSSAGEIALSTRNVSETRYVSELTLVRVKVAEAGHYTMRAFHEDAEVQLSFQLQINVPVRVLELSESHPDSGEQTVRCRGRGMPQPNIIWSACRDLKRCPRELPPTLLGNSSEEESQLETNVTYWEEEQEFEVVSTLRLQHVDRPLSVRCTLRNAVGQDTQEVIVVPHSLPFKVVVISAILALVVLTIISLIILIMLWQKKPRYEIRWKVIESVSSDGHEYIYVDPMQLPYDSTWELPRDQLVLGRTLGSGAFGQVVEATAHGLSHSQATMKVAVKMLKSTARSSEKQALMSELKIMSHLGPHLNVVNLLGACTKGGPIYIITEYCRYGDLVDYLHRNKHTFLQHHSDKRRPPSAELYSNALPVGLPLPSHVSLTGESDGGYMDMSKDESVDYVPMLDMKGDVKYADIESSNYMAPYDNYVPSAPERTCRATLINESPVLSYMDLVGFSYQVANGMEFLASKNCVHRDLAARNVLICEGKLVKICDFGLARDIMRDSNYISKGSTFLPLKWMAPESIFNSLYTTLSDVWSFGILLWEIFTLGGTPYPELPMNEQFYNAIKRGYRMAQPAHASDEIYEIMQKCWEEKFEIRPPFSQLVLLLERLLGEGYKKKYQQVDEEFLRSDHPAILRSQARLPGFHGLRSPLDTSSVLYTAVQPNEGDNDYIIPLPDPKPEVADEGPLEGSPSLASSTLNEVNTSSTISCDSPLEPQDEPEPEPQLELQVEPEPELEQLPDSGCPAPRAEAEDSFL

VEGFR2 (cytoplasmic domain KDR protein), sequence (P35968 786-1356): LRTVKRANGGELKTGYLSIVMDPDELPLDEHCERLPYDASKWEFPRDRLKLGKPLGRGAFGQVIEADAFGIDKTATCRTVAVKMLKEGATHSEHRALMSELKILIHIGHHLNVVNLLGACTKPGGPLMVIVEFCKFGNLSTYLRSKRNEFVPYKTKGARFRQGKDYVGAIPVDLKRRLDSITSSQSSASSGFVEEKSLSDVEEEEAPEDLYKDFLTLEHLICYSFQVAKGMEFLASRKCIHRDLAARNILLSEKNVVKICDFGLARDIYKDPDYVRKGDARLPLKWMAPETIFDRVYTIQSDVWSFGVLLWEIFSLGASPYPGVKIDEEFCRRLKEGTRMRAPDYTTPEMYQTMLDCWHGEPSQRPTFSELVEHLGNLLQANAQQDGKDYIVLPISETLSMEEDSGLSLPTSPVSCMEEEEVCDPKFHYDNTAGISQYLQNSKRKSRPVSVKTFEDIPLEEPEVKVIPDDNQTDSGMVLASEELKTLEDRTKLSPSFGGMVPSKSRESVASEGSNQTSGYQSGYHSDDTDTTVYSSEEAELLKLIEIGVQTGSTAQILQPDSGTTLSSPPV
recombinant human GST-PKR, sequence (P19525 whole entry): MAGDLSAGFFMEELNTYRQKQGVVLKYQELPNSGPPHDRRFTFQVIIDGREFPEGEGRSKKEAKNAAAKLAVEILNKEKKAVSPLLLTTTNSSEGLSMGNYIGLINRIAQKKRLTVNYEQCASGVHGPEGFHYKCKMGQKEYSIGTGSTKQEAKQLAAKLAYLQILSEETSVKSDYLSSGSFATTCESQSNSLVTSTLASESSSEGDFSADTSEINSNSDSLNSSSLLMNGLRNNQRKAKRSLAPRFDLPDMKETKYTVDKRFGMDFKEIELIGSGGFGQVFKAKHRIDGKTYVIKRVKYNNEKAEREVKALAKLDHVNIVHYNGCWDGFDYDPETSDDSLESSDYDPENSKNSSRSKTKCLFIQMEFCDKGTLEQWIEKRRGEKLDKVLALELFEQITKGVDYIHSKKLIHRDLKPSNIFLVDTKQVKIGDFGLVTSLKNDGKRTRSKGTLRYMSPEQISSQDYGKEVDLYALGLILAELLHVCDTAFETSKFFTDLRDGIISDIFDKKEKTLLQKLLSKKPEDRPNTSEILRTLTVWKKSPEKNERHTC
PDGFRβ (cytoplasmic domain PDGFR-b protein), sequence (P09619 554-1106): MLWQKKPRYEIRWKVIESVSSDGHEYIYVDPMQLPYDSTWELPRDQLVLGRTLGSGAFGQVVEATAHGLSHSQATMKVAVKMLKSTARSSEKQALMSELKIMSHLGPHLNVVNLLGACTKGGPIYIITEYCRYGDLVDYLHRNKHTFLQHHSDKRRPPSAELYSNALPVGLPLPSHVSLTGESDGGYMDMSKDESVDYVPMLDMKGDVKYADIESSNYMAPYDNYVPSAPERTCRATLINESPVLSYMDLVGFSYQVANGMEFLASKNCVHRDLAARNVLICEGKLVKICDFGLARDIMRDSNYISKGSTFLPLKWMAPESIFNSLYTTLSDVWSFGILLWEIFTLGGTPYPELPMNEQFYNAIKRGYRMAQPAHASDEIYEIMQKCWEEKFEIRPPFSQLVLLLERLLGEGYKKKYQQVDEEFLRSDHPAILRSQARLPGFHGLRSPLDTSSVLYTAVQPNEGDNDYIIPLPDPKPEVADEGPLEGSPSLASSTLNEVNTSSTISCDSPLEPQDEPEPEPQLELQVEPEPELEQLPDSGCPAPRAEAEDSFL
VEGFR2, sequence (P35968 20-1356): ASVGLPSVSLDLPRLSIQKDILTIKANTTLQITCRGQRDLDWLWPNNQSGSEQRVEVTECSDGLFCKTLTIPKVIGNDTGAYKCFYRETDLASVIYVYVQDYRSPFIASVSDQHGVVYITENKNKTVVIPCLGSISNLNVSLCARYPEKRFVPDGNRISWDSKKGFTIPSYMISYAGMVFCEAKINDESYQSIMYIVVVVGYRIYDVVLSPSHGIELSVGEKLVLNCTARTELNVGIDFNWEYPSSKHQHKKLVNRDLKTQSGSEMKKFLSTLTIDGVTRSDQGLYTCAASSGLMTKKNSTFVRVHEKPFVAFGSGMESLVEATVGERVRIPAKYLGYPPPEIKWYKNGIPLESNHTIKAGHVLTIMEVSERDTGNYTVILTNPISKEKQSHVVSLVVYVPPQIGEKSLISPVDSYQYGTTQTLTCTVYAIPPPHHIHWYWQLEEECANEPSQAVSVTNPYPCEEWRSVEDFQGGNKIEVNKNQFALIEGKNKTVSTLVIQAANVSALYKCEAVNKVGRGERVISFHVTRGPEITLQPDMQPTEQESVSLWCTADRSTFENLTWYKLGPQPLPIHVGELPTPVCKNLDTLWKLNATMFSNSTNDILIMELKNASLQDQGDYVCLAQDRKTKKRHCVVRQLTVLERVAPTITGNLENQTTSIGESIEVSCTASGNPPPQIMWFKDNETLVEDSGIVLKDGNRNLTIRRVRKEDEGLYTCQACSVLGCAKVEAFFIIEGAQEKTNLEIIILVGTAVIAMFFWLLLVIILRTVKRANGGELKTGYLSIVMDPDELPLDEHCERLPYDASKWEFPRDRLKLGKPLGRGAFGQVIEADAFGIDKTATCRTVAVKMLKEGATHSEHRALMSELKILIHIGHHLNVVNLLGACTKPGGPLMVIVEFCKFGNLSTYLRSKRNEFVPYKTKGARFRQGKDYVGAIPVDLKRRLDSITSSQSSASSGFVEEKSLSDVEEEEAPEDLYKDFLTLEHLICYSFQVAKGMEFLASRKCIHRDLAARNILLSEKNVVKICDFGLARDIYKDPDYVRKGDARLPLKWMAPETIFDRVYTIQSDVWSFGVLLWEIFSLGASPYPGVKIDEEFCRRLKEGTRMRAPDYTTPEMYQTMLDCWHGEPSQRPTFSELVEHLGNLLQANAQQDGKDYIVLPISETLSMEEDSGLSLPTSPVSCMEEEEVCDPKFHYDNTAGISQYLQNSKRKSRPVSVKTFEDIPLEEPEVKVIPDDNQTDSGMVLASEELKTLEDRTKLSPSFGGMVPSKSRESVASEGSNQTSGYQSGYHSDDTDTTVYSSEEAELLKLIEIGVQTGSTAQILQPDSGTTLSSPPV

Question: For `CS(C)(=O)=NC(=O)c1cnc(N)c(-c2cc3cc(NC(=O)Nc4ccc(Cl)c(C(F)(F)F)c4)ccc3s2)c1` [Example 5, 6-amino-5-{5-[({[4-chloro-3-(trifluoromethyl)phenyl]amino}carbonyl)amino]-1-benzothien-2-yl}-N-[dimethyl(oxido)-λ^4-sulfanylidene]nicotinamide], which IC50 [1] is on record?
Answer: Its IC50 is 6 nM.

Question: And the IC50 [2]?
Answer: Its IC50 is 21 nM.

Question: And the IC50 [3]?
Answer: The IC50 was 11 nM.

Question: What about the IC50 [4] of the same compound?
Answer: The IC50 was 69 nM.

Question: How did the IC50 [1] turn out when `CS(C)(=O)=NC(=O)c1cnc(N)c(-c2cc3cc(NC(=O)Nc4cc(C(F)(F)F)ccc4F)ccc3s2)c1` [Example 6, 6-amino-N-[dimethyl(oxido)-λ^4-sulfanylidene]-5-{5-[({[2-fluoro-5-(trifluoromethyl)phenyl]amino}carbonyl)amino]-1-benzothien-2-yl}nicotinamide] was run?
Answer: Its IC50 is 6 nM.

Question: What about the IC50 [2] of the same compound?
Answer: Its IC50 is 27 nM.

Question: What about the IC50 [3] of the same compound?
Answer: Its IC50 is 5 nM.

Question: And the IC50 [4]?
Answer: The IC50 was 167 nM.

Question: `CS(C)(=O)=NC(=O)c1cncc(-c2cc3cc(NC(=O)Nc4cc(C(F)(F)F)ccc4F)ccc3s2)c1` [Example 57, N-[dimethyl(oxido)-λ^4-sulfanylidene]-5-{5-[({[2-fluoro-5-(trifluoromethyl)phenyl]amino}carbonyl)amino]-1-benzothien-2-yl}nicotinamide] was tested. Which IC50 [1] did it give?
Answer: Its IC50 is 7 nM.

Question: What about the IC50 [4] of the same compound?
Answer: The IC50 was 551 nM.

Question: For `CS(C)(=O)=NC(=O)c1cncc(-c2cc3cc(NC(=O)Nc4ccc(Cl)c(C(F)(F)F)c4)ccc3s2)c1` [Example 58, 5-{5-[({[4-chloro-3-(trifluoromethyl)phenyl]amino}carbonyl)amino]-1-benzothien-2-yl}-N-[dimethyl(oxido)-Δ^4-sulfanylidene]nicotinamide], which IC50 [1] is on record?
Answer: The IC50 was 14 nM.

Question: And the IC50 [4]?
Answer: Its IC50 is 390 nM.

Question: Which IC50 [5] does the source give for `COP(=O)(OC)c1cnc(N)c(-c2ccc(NC(=O)Nc3cccc(C(F)(F)F)c3)cc2)c1` [Example 64, dimethyl (6-amino-5-(4-(3-(3-(trifluoromethyl)phenyl)ureido)phenyl)pyridin-3-yl)phosphonate] here?
Answer: Its IC50 is 66 nM.
